A word on the IC90: it is the point of the concentration-response curve where the effect stands at 90%.

Where a name gives a salt, the structure may show the parent alone.

For the first assay, the system named is Acinetobacter baumannii ATCC17978. As to the kind of experiment: Antimicrobial susceptibility testing: 90% growth inhibitory concentration (IC90) determination, Iso-Sensitest broth, OD 600 nm. It counts as cell-based. The settings on record: Acinetobacter baumannii, ATCC17978, 16 h, 90% growth inhibitory concentration, Acinetobacter baumannii ATCC17978, Iso-Sensitest broth, OD 600 nm over 16 h; read-out: ATCC 17978 IC90. In short, it runs like this: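 Twofold serial dilutions (e.g. 50–0.097 μM final) incubated with ~5×10^5 CFU/ml in Iso-Sensitest broth at 35±2 °C. OD600 read every 20 min for 16 h; IC90 derived from growth inhibition during logarithmic phase.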
Take `COc1ccc(-c2cnc3c(Nc4ccc5c(c4)CCN(CCOCCN)C5=O)nccn23)c(F)c1F` [Example 171, 2-[2-(2-aminoethoxy)ethyl]-6-[[3-(2,3-difluoro-4-methoxyphenyl)imidazo[1,2-a]pyrazin-8-yl]amino]-3,4-dihydroiso-quinolin-1-one;2,2,2-trifluoroacetic acid]: the concentration for an effect of 90% (IC90) worked out at 290 nM.

For `CCc1cc(Nc2nccn3c(-c4ccc(OC)c(F)c4F)cnc23)ccc1C(=O)NCCCNCCN` [Example 185, N-[3-(2-aminoethyl-amino)propyl]-4-[[3-(2,3-difluoro-4-methoxyphenyl)imidazo[1,2-a]pyrazin-8-yl]amino]-2-ethylbenzamide; 2,2,2-trifluoro-acetic acid], the concentration for an effect of 90% (IC90) was 590 nM. Same read-out and setting: in the case of `CCc1cc(Nc2nccn3c(-c4ccc(OC)c(F)c4F)cnc23)ccc1C(=O)NCCOCCN` [Example 86] it was 50 nM; in that of `CCc1cc(Nc2nccn3c(-c4ccc(OC)c(F)c4F)cnc23)ccc1C(=O)NCCNCCO` [Example 196, 4-((3-(2,3-difluoro-4-methoxyphenyl)imidazo[1,2-a]pyrazin-8-yl)amino)-2-ethyl-N-(2-((2-hydroxyethyl)amino)ethyl) benzamide hydrochloride], 290 nM. In the case of `Cc1cc(Nc2nccn3c(-c4ccc(OC(F)F)cc4)cnc23)ccc1C(=O)NCCS(=O)(=O)CCN` [Example 46, N-(2-((2-Aminoethyl)sulfonyl)ethyl)-4-((3-(4-(difluoromethoxy)phenyl)imidazo[1,2-a]pyrazin-8-yl)amino)-2-methylbenzamide], the IC90 was found to be 530 nM. On to `CCc1cc(Nc2nccn3c(-c4ccc(OC)c(F)c4F)cnc23)ccc1C(=O)NCCN(C)CCN` [Example 168, N-[2-[2-aminoethyl (methyl)amino]ethyl]-4-[[3-(2,3-difluoro-4-methoxyphenyl)imidazo[1,2-a]pyrazin-8-yl]amino]-2-ethylbenzamide; hydrochloride], for which the concentration for an effect of 90% (IC90) is 120 nM. The same measure, in the same setting: in the case of `COc1ccc(-c2cnc3c(Nc4ccc(C(=O)NCCOCCN)c(CC(F)F)c4)nccn23)cc1F` [Example 173, N-[2-(2-aminoethoxy)ethyl]-2-(2,2-difluoroethyl)-4-[[3-(3-fluoro-4-methoxyphenyl)imidazo[1,2-a]pyrazin-8-yl]amino] benzamide; formic acid] it was 370 nM.

With `CCc1cc(Nc2nccn3c(-c4ccc(OC(F)F)c(F)c4F)cnc23)ccc1C(=O)NCCNCCN` [Example 170, N-[2-(2-aminoethylamino)ethyl]-4-[[3-[4-(difluoro-methoxy)-2,3-difluorophenyl]imidazo[1,2-a]pyrazin-8-yl]amino]-2-ethylbenzamide; hydrochloride], the IC90 was 280 nM. In the case of `COc1ccc(-c2cnc3c(Nc4ccc(C(=O)NCCOCCN5CCC(F)CC5)c(C)c4)nccn23)cc1` [Example 43, N-(2-(2-(4-fluoropiperidin-1-yl)ethoxy)ethyl)-4-((3-(4-methoxyphenyl)imidazo[1,2-a]pyrazin-8-yl)amino)-2-methylbenzamide], the IC90 came out at 290 nM. Same read-out and setting: in the case of `Cc1cc(Nc2nccn3c(-c4ccc(OC(F)F)cc4)cnc23)ccc1C(=O)N(C)CCOCCN1CCNCC1` [Example 126, 4-[[3-[4-(difluoromethoxy)phenyl]imidazo [1,2-a]pyrazin-8-yl]amino]-N,2-dimethyl-N-[2-(2-piperazin-1-ylethoxy)ethyl] benzamide] it was 670 nM. `Cc1cc(Nc2nccn3c(-c4ccc(OC(F)F)cc4)cnc23)ccc1C(=O)NCCOCCN1CCC2(COC2)C1` [Example 83, 4-[[3-[4-(difluoromethoxy)phenyl]imidazo [1,2-a]pyrazin-8-yl]amino]-2-methyl-N-[2-[2-(2-oxa-7-azaspiro [3.4]octan-7-yl)ethoxy]ethyl]benzamide]: the IC90 came to 640 nM. As for `COCCOCCOCCNC(=O)c1ccc(Nc2nccn3c(-c4ccc(OC(F)F)cc4)cnc23)cc1C` [Example 150, 4-[[3-[4-(difluoro-methoxy)phenyl]imidazo [1,2-a]pyrazin-8-yl]amino]-N-[2-[2-(2-methoxy-ethoxy)ethoxy]ethyl]-2-methylbenzamide], the IC90 is 1500 nM. For `COc1ccc(-c2cnc3c(Nc4ccc(C(=O)N(C)CCOCCN5CCOC(CN)C5)c(C)c4)nccn23)cc1F` (stereo not shown) [Example 137, N-[2-[2-[2-(aminomethyl)morpholin-4-yl]ethoxy]ethyl]-4-[[3-(3-fluoro-4-methoxyphenyl)imidazo[1,2-a]pyrazin-8-yl]amino]-N,2-dimethyl-benzamide; hydrochloride], the concentration for an effect of 90% (IC90) was 940 nM. With `COc1ccc(-c2cnc3c(Nc4ccc(C(=O)NCCOCCN5CCN(C)CC5)c(C)c4)nccn23)cc1` [Example 121, 4-[[3-(4-methoxyphenyl)imidazo[1,2-a]pyrazin-8-yl]amino]-2-methyl-N-[2-[2-(4-methylpiperazin-1-yl)ethoxy]ethyl] benzamide], the concentration for an effect of 90% (IC90) is 620 nM. In the case of `C#CCOc1ccc(-c2cnc3c(Nc4ccc(C(=O)NCCOCCN)c(CC)c4)nccn23)c(F)c1F` [Example 69, N-(2-(2-aminoethoxy)ethyl)-4-((3-(2,3-difluoro-4-(prop-2-yn-1-yloxy)phenyl)imidazo[1,2-a]pyrazin-8-yl)amino)-2-ethylbenzamide], the 90% effect concentration (IC90) stood at 46 nM. With `CCc1cc(Nc2nccn3c(-c4ccc(Cl)c(F)c4F)cnc23)ccc1C(=O)NCCOCCN` [Example 9, N-(2-(2-aminoethoxy)ethyl)-4-((3-(4-chloro-2,3-difluorophenyl)imidazo[1,2-a]pyrazin-8-yl)amino)-2-ethylbenzamide hydrochloride], the IC90 came out at 160 nM. In the case of `Cc1cc(Nc2nccn3c(-c4ccc(OCC#CCN)cc4)cnc23)ccc1C(=O)NCCOCCN` [Example 123, 4-[[3-[4-(4-aminobut-2-ynoxy)phenyl]imidazo[1,2-a]pyrazin-8-yl]amino]-N-[2-(2-aminoethoxy)ethyl]-2-methylbenzamide; formic acid], the IC90 worked out at 630 nM.

With `CN(CCOCCN1CCCC(C(=O)O)C1)C(=O)c1ccc(Nc2nccn3c(-c4ccc(OCC#N)c(F)c4F)cnc23)cc1Cl` (stereo not shown) [Example 176, 1-[2-[2-[[2-chloro-4-[[3-[4-(cyanomethoxy)-2,3-difluorophenyl]imidazo[1,2-a]pyrazin-8-yl]amino]benzoyl]-methylamino]ethoxy]ethyl] piperidine-3-carboxylic acid; formic acid], the IC90 was found to be 1200 nM.

Consider `Cc1cc(Nc2nccn3c(-c4ccc(OCC#CCO)cc4)cnc23)ccc1C(=O)NCCOCCN` [Example 29, N-[2-(2-aminoethoxy)ethyl]-4-[[3-[4-(4-hydroxybut-2-ynoxy)phenyl]imidazo[1,2-a]pyrazin-8-yl]amino]-2-methyl-benzamide formate], for which the 90% effect concentration (IC90) was determined as 120 nM.

`CNCCCCNC(=O)c1ccc(Nc2nccn3c(-c4ccc(OC)c(F)c4)cnc23)cc1C` [Example 161, 4-[[3-(3-fluoro-4-methoxyphenyl)imidazo[1,2-a]pyrazin-8-yl]amino]-2-methyl-N-[4-(methyl-amino)butyl] benzamide; hydrochloride]: the IC90 was 350 nM. For `Cc1cc(Nc2nccn3c(-c4ccc(OC(F)F)cc4)cnc23)ccc1C(=O)NCCOCC(=O)NCc1nnn[nH]1` [Example 158, 4-[[3-[4-(difluoro-methoxy)phenyl]imidazo [1,2-a]pyrazin-8-yl]amino]-2-methyl-N-[2-[2-oxo-2-(1H-tetrazol-5-ylmethylamino)ethoxy]ethyl] benzamide], the IC90 is 8900 nM. Same read-out and setting: in the case of `COc1ccc(-c2cnc3c(Nc4ccc(C(=O)NCCCOCC(=O)N5CCOC(CN)C5)c(C)c4)nccn23)cc1F` (stereo not shown) [Example 124, N-[3-[2-[2-(aminomethyl)morpholin-4-yl]-2-oxoethoxy]propyl]-4-[[3-(3-fluoro-4-methoxyphenyl)imidazo[1,2-a]pyrazin-8-yl]amino]-2-methylbenzamide; hydrochloride] it was 640 nM; in that of `COc1ccc(-c2cnc3c(Nc4ccc(C(=O)N(C)CCOCCN5CCNCC5)c(C)c4)nccn23)cc1` [Example 133, formic acid; 4-[[3-(4-methoxyphenyl)imidazo[1,2-a]pyrazin-8-yl]amino]-N,2-dimethyl-N-[2-(2-piperazin-1-ylethoxy)ethyl] benzamide], 790 nM.

Still in this assay, the particulars now being: Acinetobacter baumannii, ATCC17978, 16 h, read-out: ATCC 17978 IC90.
On to `CCc1cc(Nc2nccn3c(-c4ccc(OC)cc4N)cnc23)ccc1C(=O)NCCOCCN` [Example 57, 4-((3-(2-amino-4-methoxyphenyl)imidazo[1,2-a]pyrazin-8-yl)amino)-N-(2-(2-aminoethoxy)ethyl)-2-ethylbenzamide hydrochloride], for which the concentration for an effect of 90% (IC90) stood at 650 nM.

For `CCc1cc(Nc2nccn3c(-c4ccc(OC)c(F)c4F)cnc23)ccc1C(=O)NCCOC(C)(C)CN` [Example 71, N-[2-(2-amino-1,1-dimethyl-ethoxy)ethyl]-4-[[3-(2,3-difluoro-4-methoxy-phenyl)imidazo[1,2-a]pyrazin-8-yl]amino]-2-ethyl-benzamide; formic acid], the concentration for an effect of 90% (IC90) was 28 nM. Regarding `Cc1cc(Nc2nccn3c(-c4ccc(OCC#N)c(F)c4)cnc23)ccc1C(=O)NCCOCCN` [Example 68, N-[2-(2-aminoethoxy)ethyl]-4-[[3-[4-(cyanomethoxy)-3-fluoro-phenyl]imidazo[1,2-a]pyrazin-8-yl]amino]-2-methyl-benzamide; formic acid], the IC90 turned out to be 220 nM. For the molecule `COc1ccc(-c2cnc3c(Nc4ccc(C(=O)NCCOCCN)c(C)c4)nccn23)cc1F` [Example 36, N-(2-(2-aminoethoxy)ethyl)-4-((3-(3-fluoro-4-methoxyphenyl)imidazo[1,2-a]pyrazin-8-yl)amino)-2-methylbenzamide hydrochloride], the concentration for an effect of 90% (IC90) turned out to be 160 nM.

Regarding `COc1ccc(-c2cnc3c(Nc4ccc(C(=O)NCCOCCN)c(C)c4)nccn23)cc1Cl` [Example 30, N-(2-(2-aminoethoxy)ethyl)-4-((3-(3-chloro-4-methoxyphenyl)imidazo[1,2-a]pyrazin-8-yl)amino)-2-methylbenzamide hydrochloride], the IC90 was found to be 140 nM.

For the origin of these results see patent US20230017532A1 (Hoffmann-La Roche Inc., priority 2018, published 2023).
